What was measured:
[1] = target: T1, CYP 2D6 (Homo sapiens, UniProt P10635); assay: Human Liver Microsome CYP 2D6 Inhibition; format: in vitro ADME; settings: human liver microsomes, bufuralol substrate; read-out: inhibited CYP2D6 microsomes, IC50
T1 construct: followed by 555.6 ml of 20 mg/mL HLM (BD Gentest); tissue BD Gentest; host or cells: human liver microsomes
Description: Determining the IC-50 for Human Liver Microsome CYP 2D6 Inhibition
Postassium Phosphate Buffer pH 7.4 (39.333 mL) is chilled in an ice bath and added to a 50 ml plastic tube. A 3.2 mM bufuralol solution is prepared. 111.1 ul of 3.2 mM bufuralol is added to the buffer followed by 555.6 ml of 20 mg/mL HLM (BD Gentest). The incubation mixture was gently inverted and equilibrated at 37° C. for 5 min. A stock inhibitor solution is prepared, such as in DMSO. Incubation mixture (801 ul) is added into 96-well, 1.2 mL plastic tubes. Inhibitor is added at various concentrations (e.g. 30 μM to […]). The tubes are sealed and mix by inverting 5 times gently. The incubation mixture containing inhibitor (270 μL) is added by aliquot into wells of a 1 mL, 96-well block (duplicate). The block is placed into a 37° C. water bath and equilibrated for 3 minutes. 10 mM NADPH (30 ml) is added to all samples. After 5 min, the reactions are stopped by adding 300 ml of Quench Solution [0.1% TFA in CH3CN]. 1′-OH-bufuralol-d9 (750 ng/mL 30 μL) is added, the block is gently vortexed then centrifuged at 3000 rpm for 10 min at 4° C. 50 μL of supernatant from all samples is added by aliquot into a shorter, 96-well block. The aliquoted supernatants are pooled with other assay(s) and HPLC Grade Water (50 μL) is added to all samples. After covering and shaking by vortex gently for 2 minutes, the solutions were analyzed by LC-MS (API 3000, 5% MeOH w/0.1% AcOH to 95% MeOH w/0.1% AcOH). 500 nM quinidine is used as a control.

[2] = tested on: VEGF-stimulated HUVEC proliferation (Human Umbilical Vein Endothelial cells); assay: HUVEC Proliferation Assay; format: cell-based; settings: VEGF 50 ng/mL, 72 h, CyQuant fluorescent dye, read-out: inhibited VEGF-stimulated HUVEC proliferation at a level
Outline: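 HUVEC (passage 2–3) were seeded in DMEM+10% FBS for 22 h, then pre-incubated 2–3 h with 5-point, 5-fold compound dilutions (0.25% DMSO). They were then stimulated with VEGF (50 ng/mL final) for 72 h at 37 °C. Proliferation was read by CyQuant fluorescence (485/530 nm) after freeze-thaw, and IC50 came from a 4-parameter fit.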

[3] = target: T2, CYP 3A4 (Homo sapiens, UniProt P08684); assay: Human Liver Microsome CYP 3A4 Inhibition; format: in vitro ADME; settings: human liver microsomes, midazolam substrate; read-out: inhibited CYP3A4 microsomes, IC50
T2 construct: followed by 222.2 ml of 20 mg/mL HLM (BD Gentest); tissue BD Gentest; host or cells: human liver microsomes
Description: Determining the IC-50 for Human Liver Microsome CYP 3A4 Inhibition
Postassium Phosphate Buffer pH 7.4 (39.667 mL) is chilled in an ice bath and added to a 50 ml plastic tube. A 2 mM midazolam solution is prepared. 111.1 ul of 2 mM midazolam is added to the buffer followed by 222.2 ml of 20 mg/mL HLM (BD Gentest). The incubation mixture was gently inverted and equilibrated at 37° C. for 5 min. A stock inhibitor solution is prepared, such as in DMSO. Incubation mixture (801 ul) is added into 96-well, 1.2 mL plastic tubes. Inhibitor is added at various concentrations (e.g. 30 uM to 120 nM). The tubes are sealed and mix by inverting 5 times gently. The incubation mixture containing inhibitor (270 uL) is added by aliquot into wells of a 1 mL, 96-well block (duplicate). The block is placed into a 37° C. water bath and equilibrated for 3 min. 10 mM NADPH (30 ml) is added to all samples. After 5 minutes, the reactions are stopped by adding 300 ml of Quench Solution [0.1% TFA in CH3CN]. 1′-OH-Midazolam-d313C (2 mg/mL 30 uL) is added, the block is gently vortexed then centrifuged at 3000 rpm for 10 minutes at 4° C. 50 μL of supernatant from all samples is added by aliquot into a shorter, 96-well block. The aliquoted supernatants are pooled with other assay(s) and HPLC Grade Water (50 ul) is added to all samples. After covering and shaking by vortex gently for 2 minutes, the solutions were analyzed by LC-MS (API 3000,5% MeOH w/0.1% AcOH to 95% MeOH w/0.1% AcOH). 37 nM ketoconazole is used as a control.

T2 sequence (P08684 whole entry): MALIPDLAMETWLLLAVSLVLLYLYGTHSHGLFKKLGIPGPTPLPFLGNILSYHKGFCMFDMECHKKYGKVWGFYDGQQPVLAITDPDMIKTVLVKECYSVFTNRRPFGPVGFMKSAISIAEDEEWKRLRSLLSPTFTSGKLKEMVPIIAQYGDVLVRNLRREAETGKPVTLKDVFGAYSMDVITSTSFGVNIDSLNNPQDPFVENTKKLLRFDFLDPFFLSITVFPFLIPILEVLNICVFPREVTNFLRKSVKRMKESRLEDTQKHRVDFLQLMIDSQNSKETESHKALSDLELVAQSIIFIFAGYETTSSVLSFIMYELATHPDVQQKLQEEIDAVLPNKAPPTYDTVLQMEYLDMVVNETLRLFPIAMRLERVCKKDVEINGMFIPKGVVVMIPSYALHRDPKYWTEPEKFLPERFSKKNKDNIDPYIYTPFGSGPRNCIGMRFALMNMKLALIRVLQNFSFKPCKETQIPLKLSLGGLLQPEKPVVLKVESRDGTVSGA
T1 sequence (P10635 whole entry): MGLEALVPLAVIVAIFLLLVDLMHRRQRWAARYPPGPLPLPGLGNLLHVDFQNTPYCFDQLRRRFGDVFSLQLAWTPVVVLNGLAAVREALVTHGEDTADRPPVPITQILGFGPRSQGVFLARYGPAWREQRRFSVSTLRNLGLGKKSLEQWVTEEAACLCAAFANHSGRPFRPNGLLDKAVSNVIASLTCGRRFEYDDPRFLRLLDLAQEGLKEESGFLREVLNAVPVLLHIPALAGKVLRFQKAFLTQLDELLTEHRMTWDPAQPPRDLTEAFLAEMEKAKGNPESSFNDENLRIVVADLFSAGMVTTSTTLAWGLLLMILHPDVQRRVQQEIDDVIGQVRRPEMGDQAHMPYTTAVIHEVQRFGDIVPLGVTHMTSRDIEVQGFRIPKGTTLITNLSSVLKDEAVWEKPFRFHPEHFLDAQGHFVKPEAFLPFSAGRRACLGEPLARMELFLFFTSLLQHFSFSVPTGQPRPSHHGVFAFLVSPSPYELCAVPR

SMILES	IC50 [1] [µM]	IC50 [2] [nM]	IC50 [3] [µM]
CC1(C)CC(=O)Nc2cc(NC(=O)c3cccnc3NCc3c[nH]c4ncccc34)ccc21 [Example 41, N-(4,4-Dimethyl-2-oxo-1,2,3,4-tetrahydro-7-quinolinyl)-2-((1H-pyrrolo[2,3-b]pyridin-3-ylmethyl)amino)-3-pyridinecarboxamide]	> 20	< 500	> 20
CC(C)(C)c1ccc(NC(=O)c2cc(F)cnc2NCc2ccnc3[nH]ncc23)cc1 [Example 125, N-(4-(1,1-Dimethylethyl)phenyl)-5-fluoro-2-((1H-pyrazolo[3,4-b]pyridin-4-ylmethyl)amino)-3-pyridinecarboxamide]	> 20	< 500	> 20
CC1(C)CNC(=O)c2cc(NC(=O)c3cccnc3NCc3ccnc4[nH]ccc34)ccc21 [Example 56, N-(4,4-Dimethyl-1-oxo-1,2,3,4-tetrahydro-isoquinolin-7-yl)-2-[(1H-pyrrolo[2,3-b]pyridin-4-ylmethyl)-amino]-nicotinamide]	> 20	< 500	> 20
CC(C)(C)c1ccc(NC(=O)c2cccnc2NCc2ccncc2)cc1 [N-(4-tert-Butylphenyl)-2-((4-pyridinylmethyl)amino)-3-pyridinecarboxamide, reference compound]	8.7	–	2.7
O=C(Nc1cc(OC[C@H]2CCCO2)cc(C(F)(F)F)c1)c1cccnc1NCc1ccnc2[nH]ccc12 [Example 36, 2-[(1H-pyrrolo[2,3-b]pyridin-4-ylmethyl)amino]-N-[3-[(2R)-tetrahydrofuran-2-ylmethoxy]-5-(trifluoromethyl)phenyl]nicotinamide]	> 20	< 500	> 20
O=C(Nc1ccc(C(F)(F)C(F)(F)F)cc1)c1cccnc1NCc1ccnc2[nH]ccc12 [Example 67, N-(4-pentafluoroethyl-phenyl)-2-[(1H-pyrrolo[2,3-b]pyridin-4-ylmethyl)-amino]-nicotinamide]	> 20	< 500	> 20
CC1(C)CNc2cc(NC(=O)c3cc(F)cnc3NCc3ccnc4[nH]ccc34)ccc21 [Example 130, N-(3,3-Dimethyl-2,3-dihydro-1H-indol-6-yl)-5-fluoro-2-((1H-pyrrolo[2,3-b]pyridin-4-ylmethyl)amino)-3-pyridinecarboxamide]	> 20	< 500	> 20
O=C(Nc1ccc(C(F)(F)C(F)(F)F)c(OC[C@@H]2CCCN2)c1)c1cccnc1NCc1ccnc2[nH]ccc12 [Example 72, N-(4-(Pentafluoroethyl)-3-(((2S)-2-pyrrolidinylmethyl)oxy)phenyl)-2-((1H-pyrrolo[2,3-b]pyridin-4-ylmethyl)amino)-3-pyridinecarboxamide]	–	< 500	> 20
CN1CCC[C@H]1COc1cc(NC(=O)c2cccnc2NCc2ccnc3[nH]ccc23)ccc1C(F)(F)C(F)(F)F [Example 65, N-(3-((((2S)-1-methyl-2-pyrrolidinyl)methyl)oxy)-4-(pentafluoroethyl)phenyl)-2-((1H-pyrrolo[2,3-b]pyridin-4-ylmethyl)amino)-3-pyridinecarboxamide]	–	< 500	> 20
O=C(Nc1ccc(C(F)(F)F)c(F)c1)c1cc(F)cnc1NCc1ccnc2[nH]ccc12 [Example 107, 5-fluoro-N-(3-fluoro-4-(trifluoromethyl)phenyl)-2-((1H-pyrrolo[2,3-b]pyridin-4-ylmethyl)amino)-3-pyridinecarboxamide]	–	< 500	> 20
CC(C)(C)c1ccc(NC(=O)c2cccnc2NCc2ccnc3[nH]ccc23)cc1 [Example 5, N-(4-tert-Butylphenyl)-2-[(1H-pyrrolo[2,3-b]pyridin-4-ylmethyl)amino]nicotinamide]	> 20	< 500	> 20
Cc1nc2cc(NC(=O)c3cccnc3NCc3ccnc4[nH]ccc34)ccc2s1 [Example 48, N-(2-methyl-1,3-benzothiazol-5-yl)-2-[(1H-pyrrolo[2,3-b]pyridin-4-ylmethyl)amino]nicotinamide]	> 20	< 500	> 20
CC1(C)CC(=O)Nc2cc(NC(=O)c3cccnc3NCc3ccnc4c3CCN4)ccc21 [Example 30, 2-[(2,3-Dihydro-1H-pyrrolo[2,3-b]pyridin-4-ylmethyl)amino]-N-(4,4-dimethyl-2-oxo-1,2,3,4-tetrahydroquinolin-7-yl)nicotinamide]	> 20	–	> 20
CCc1nc2cc(NC(=O)c3cc(F)cnc3NCc3ccnc4[nH]ccc34)ccc2o1 [Example 92, N-(2-ethyl-1,3-benzoxazol-5-yl)-5-fluoro-2-((1H-pyrrolo[2,3-b]pyridin-4-ylmethyl)amino)-3-pyridinecarboxamide]	–	< 500	> 20
O=C(Nc1ccc(Br)cc1)c1cc(F)cnc1NCc1ccnc2[nH]ccc12 [Example 89, N-(4-bromophenyl)-5-fluoro-2-((1H-pyrrolo[2,3-b]pyridin-4-ylmethyl)amino)-3-pyridinecarboxamide]	–	< 500	> 20
O=C(Nc1cccc(C(O)(C(F)(F)F)C(F)(F)F)c1)c1cccnc1NCc1ccnc2[nH]ccc12 [Example 18, 2-[(1H-Pyrrolo[2,3-b]pyridin-4-ylmethyl)amino]-N-{3-[2,2,2-trifluoro-1-hydroxy-1-(trifluoromethyl)ethyl]phenyl}nicotinamide]	–	< 500	> 20
O=C(Nc1cccc(C(F)(F)F)c1)c1cc(F)cnc1NCc1ccnc2[nH]ccc12 [Example 98, 5-fluoro-2-((1H-pyrrolo[2,3-b]pyridin-4-ylmethyl)amino)-N-(3-(trifluoromethyl)phenyl)-3-pyridinecarboxamide]	–	< 500	> 20
CC(=O)N1CC(C)(C)c2ccc(NC(=O)c3cccnc3NCc3c[nH]c4ncccc34)cc21 [Example 39, N-(1-acetyl-3,3-dimethyl-2,3-dihydro-1H-indol-6-yl)-2-[(1H-pyrrolo[2,3-b]pyridin-3-ylmethyl)amino]nicotinamide]	–	< 500	> 20
O=C(Nc1ccc(C(F)(F)F)c(Cl)c1)c1cc(F)cnc1NCc1ccnc2[nH]ncc12 [Example 127, N-(3-Chloro-4-(trifluoromethyl)phenyl)-5-fluoro-2-((1H-pyrazolo[3,4-b]pyridin-4-ylmethyl)amino)-3-pyridinecarboxamide]	–	< 500	> 20
Cc1nc2cc(NC(=O)c3cccnc3NCc3ccnc4c3CC(=O)N4)ccc2s1 [Example 74, N-(2-methyl-1,3-benzothiazol-5-yl)-2-(((2-oxo-2,3-dihydro-1H-pyrrolo[2,3-b]pyridin-4-yl)methyl)amino)-3-pyridinecarboxamide]	> 20	–	> 20
CC(C)(C)c1ccc(NC(=O)c2cc(F)cnc2NCc2ccnc3[nH]ccc23)cc1 [Example 79, N-(4-(1,1-dimethylethyl)phenyl)-5-fluoro-2-((1H-pyrrolo[2,3-b]pyridin-4-ylmethyl)amino)-3-pyridinecarboxamide]	> 20	–	> 20

From US8247556B2, “Method for preparing 6-substituted-7-aza-indoles” (Amgen Inc., priority 2005, dated 2012)
